{"source": "patent EP1232754A2", "about": "“Use of cationic helix peptides for treatment of sepsis and for detection and removal of endotoxins” (Commonwealth Biotechnologies, Inc., priority 2001, dated 2002)", "key": {"E. coli (strain JM 109) [1]": {"system": "E. coli (strain JM 109)", "assay": "Neutralization of endotoxin presented by intact E. coli, endotoxin chromogenic assay", "assay_type": "biochemical, Escherichia coli", "conditions": "TR3 CONST 200 µg/mL; for % neutralization / Endotoxin Equivalents: 10 min, 37°C", "method": "LPS is presented on the surface of gram-negative bacteria, such as Escherichia coli (E. coli). It was thus of interest to determine whether TR3 CONST would bind LPS present on whole bacterial cells. The assay method used was the endotoxin chromogenic assay as described above.\nThus, increasing amounts of E. coli (strain JM 109) were incubated (10 min; 37°C) in the presence or absence of 200 µg/mL TR3 CONST in 10 mM phosphate-150 mM NaCI-3 mM KCI buffer, pH 7.4. An aliquot of the incubation mixture was then assayed for residual endotoxin activity as previously described.\nEquivalent endotoxin concentrations are deduced by reference to the endotoxin calibration curve."}, "[2]": {"assay": "Neutralization of endotoxin added to plasma or buffer, kinetic chromogenic Limulus Amebocyte Lysate endotoxin assay", "assay_type": "biochemical", "description": "The presence of endotoxin may routinely be measured using, for example, a kinetic chromogenic method. The assay involves a complete set of enzyme reactions which are described in detail in the following publications, each of which is hereby incorporated by reference. Endosafe Limulus Amebocyte Lysate Endochrome-K™ package insert. (Endosafe, Charleston, SC) Pearson III, F., Pyrogens/Endotoxins, LAL Testing and Depyrogenation, 1985. Watson, S., Levin, J., and Novitsky, T., Progress in Clinical and Biological Research, Endotoxins and their detection with the Limulus Amebocyte Lysate Test, 93.\nIn the course of the endotoxin assay, a calibration curve is prepared which is a plot of logarithm of the time of the kinetic endpoint of a chromogenic reaction versus the logarithm of known concentrations of endotoxin.\nThus, if endotoxin is added to aqueous buffer solutions or to plasma the amount of endotoxin present can be assayed by reference to the calibration curve. Similarly, if plasma, plasma fractions, patient samples or any test solution contains an endogenous level of endotoxin, the level can also be determined by reference to the calibration curve.\nEndotoxin was purposely added to plasma to a final concentration of 10 ng/mL and increasing concentrations of the compounds Arg Helix #2 (a monomeric cationic helix peptide), Bis Arg Helix #2 (which contains 2 copies of Arg Helix #2), Tris Arg Helix #3 (which contains 3 copies of Arg Helix #3), Tetra Arg Helix #3 (4 copies of Arg Helix #3) or Tris Arg Helix #3 (constrained) (3 copies of Arg Helix #3 constrained by design to present a \"binding groove\" within the molecule) were added to these same samples (Table 1)."}, "E. coli (strain JM 109) [3]": {"system": "E. coli (strain JM 109)", "assay": "Neutralization of endotoxin presented by intact E. coli, endotoxin chromogenic assay", "assay_type": "biochemical, Escherichia coli", "conditions": "3e06 or 3e07 E. coli per mL; increasing peptide concentrations; within 10 min at 37°C (Figure 5)"}, "[4]": {"assay": "Titration circular dichroism spectroscopy of endotoxin binding", "conditions": "CD titration", "method": "Circular dichroism (CD) spectroscopy can be used to determine the fractional percent of secondary structural elements present in a peptide preparation. Titration CD spectroscopy can be used to assess the effect of binding a ligand on the reorganization of peptide structure (You, Scarsdale, and Harris 1991; Sobel, Soler, et al 1992; Soler, Sobel and Harris 1992; Tyler-Cross, Sobel et al 1993; Tyler-Cross, Sobel, Marques et al, 1994). Thus, incremental amounts of endotoxin were added to a solution of TR3 CONST and the effect of binding endotoxin by the peptide was assessed by CD spectroscopy.\nBy CD, Tris Arg Helix #3 (constrained) is 18% helix in solution (20°C) but complexation with endotoxin increases the helix character of the peptide to nearly 50% (Figure 3). Note that binding of endotoxin is dose dependent and saturable."}}, "note": "Bridges are numbered along the chain shown (N, C = ends). Roman numbers before positions name the chains, in order. [ ]: non-standard residue; d: D form. Dap = NC[C@H](N)C(=O)O"}
{"substance": "I: Ac-AEARARRAAARAARRAKKP[Dap]E-NH2 / II: Ac-AEARARRAAARAARRA / III: Ac-AEARARRAAARAARRA (amide I:18-II:C, I:20-III:C) [Tris Arg Helix #3 (constrained)]", "values": [{"measurement": "% neutralization", "setting": "E. coli (strain JM 109) [1]; E. coli 3e03 organisms/mL", "value": 100, "unit": "%"}, {"measurement": "Endotoxin Equivalents", "setting": "E. coli (strain JM 109) [1]; E. coli 3e03 organisms/mL", "value": 0.00, "unit": "ng/mL"}, {"measurement": "% neutralization", "setting": "E. coli (strain JM 109) [1]; E. coli 3e04 organisms/mL", "value": 100, "unit": "%"}, {"measurement": "Endotoxin Equivalents", "setting": "E. coli (strain JM 109) [1]; E. coli 3e04 organisms/mL", "value": 0.00, "unit": "ng/mL"}, {"measurement": "% neutralization", "setting": "E. coli (strain JM 109) [1]; E. coli 3e05 organisms/mL", "value": 100, "unit": "%"}, {"measurement": "Endotoxin Equivalents", "setting": "E. coli (strain JM 109) [1]; E. coli 3e05 organisms/mL", "value": 0.00, "unit": "ng/mL"}, {"measurement": "% neutralization", "setting": "E. coli (strain JM 109) [1]; E. coli 3e06 organisms/mL", "value": 87.9, "unit": "%"}, {"measurement": "Endotoxin Equivalents", "setting": "E. coli (strain JM 109) [1]; E. coli 3e06 organisms/mL", "value": 6.97, "unit": "ng/mL"}, {"measurement": "% neutralization", "setting": "E. coli (strain JM 109) [1]; E. coli 3e07 organisms/mL", "value": 48.8, "unit": "%"}, {"measurement": "Endotoxin Equivalents", "setting": "E. coli (strain JM 109) [1]; E. coli 3e07 organisms/mL", "value": 94.3, "unit": "ng/mL"}, {"measurement": "Endotoxin Equivalents", "setting": "E. coli (strain JM 109) [1]; E. coli 3e08 organisms/mL", "value": 440.0, "unit": "ng/mL"}, {"measurement": "neutralization of the endotoxin activity", "setting": "E. coli (strain JM 109) [1]; E. coli up to 3e06 organisms/mL", "value": "complete neutralization"}, {"measurement": "endotoxin quantitatively bound", "setting": "[2]; 1 mg/ml peptide, water or plasma solution", "value": "> 1", "unit": "µg/mL"}, {"measurement": "Percent Binding of", "setting": "[2]; Endotoxin 5, peptide 2.5 (ng/mL and mg/mL)", "value": 100, "unit": "%"}, {"measurement": "Percent Binding of", "setting": "[2]; Endotoxin 50, peptide 2.5 (ng/mL and mg/mL)", "value": 100, "unit": "%"}, {"measurement": "Percent Binding of", "setting": "[2]; Endotoxin 500, peptide 1.0 (ng/mL and mg/mL)", "value": "~100", "unit": "%"}, {"measurement": "neutralization of endotoxin added to aqueous samples", "setting": "[2]; aqueous samples, compared with plasma", "value": "same results were obtained"}, {"measurement": "neutralization of endotoxin as presented on the surface of E. coli", "setting": "E. coli (strain JM 109) [3]", "value": "dose dependent neutralization"}, {"measurement": "Kd", "setting": "[4]", "value": 870, "unit": "nM"}, {"measurement": "N, stoichiometry of binding (endotoxin:peptide)", "setting": "[4]", "value": 0.91}]}
